Measurements from PubChem BioAssay (NCI).
“And” between values parts separate entries of the source, which are not always exact repeats. Equal values may be shown once.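 Compound exposure: 48 hours, 5 concentrations, 96-well plates. Abbreviation: GI50, concentration required for 50% inhibition of growth. TGI: total growth inhibition.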

Key:
Experiment in all cases: NCI tumour cell line growth inhibition, 48 h
OVCAR-8 ovarian = test system: OVCAR-8 ovarian
UACC-62 melanoma = test system: UACC-62 melanoma
M14 melanoma = test system: M14 melanoma
KM12 colon = test system: KM12 colon
IGROV1 ovarian = test system: IGROV1 ovarian
DU-145 prostate = test system: DU-145 prostate
HOP-92 NSCLC = test system: HOP-92 NSCLC
EKVX NSCLC = test system: EKVX NSCLC
NCI-H460 lung = test system: NCI-H460 lung
SNB-19 CNS = test system: SNB-19 CNS

Row | Compound | TGI (OVCAR-8 ovarian) | TGI (UACC-62 melanoma) | TGI (M14 melanoma) | TGI (KM12 colon) | TGI (IGROV1 ovarian) | TGI (DU-145 prostate) | TGI (HOP-92 NSCLC) | TGI (EKVX NSCLC) | TGI (NCI-H460 lung) | TGI (SNB-19 CNS) | GI50 (DU-145 prostate) | GI50 (HOP-92 NSCLC) | GI50 (OVCAR-8 ovarian) | GI50 (SNB-19 CNS)
1 | CC(=O)O[C@H]1C#C/C=C\C#CC[C@@H]2C(=O)N(C(=O)OC(C)(C)C)[C@@H]12 | > 82.3 µM | > 100 µM | > 100 µM | > 86.7 µM | > 100 µM | 54.8 µM | 96.8 µM | > 100 µM | 38.7 µM | 97 µM | – | – | – | –
2 | Cc1cccc(C(C)(C)C)c1NC(=O)/C(Cc1nc2ccc([N+](=O)[O-])cc2[nH]c1=O)=N/NC(=O)C[N+](C)(C)C | > 100 µM | > 100 µM | > 100 µM | > 100 µM | > 100 µM | > 100 µM | > 100 µM | > 100 µM | > 100 µM | > 100 µM | – | – | – | –
3 | Cc1cc(S(=O)(=O)Nc2nnc3c(C(F)(F)F)cc(Cl)cn23)c(S)cc1Cl | > 100 µM | > 100 µM | > 100 µM | > 100 µM | > 100 µM | > 100 µM | > 100 µM | > 100 µM | > 100 µM | > 100 µM | – | – | – | –
4 | CC1(O)C=CC2CCC1C2O (configuration not stated) | > 100 µM | > 100 µM | > 100 µM | > 100 µM | > 100 µM | – | – | > 100 µM | > 100 µM | > 100 µM | – | – | – | –
5 | Cc1ccc(S(=O)(=O)n2cncc2CO)cc1 | > 100 µM | > 100 µM | > 100 µM | > 100 µM | > 100 µM | > 100 µM | – | > 100 µM | > 100 µM | > 100 µM | – | – | – | –
6 | COc1cc2cc(C(=O)N3CC(CCl)c4c3cc(N)c3ccccc43)[nH]c2cc1OCCN(C)C (configuration not stated) | 0.0571 µM | 0.00871 µM | 0.00977 µM | 0.0116 µM | 0.00522 µM | 0.0246 µM | 0.01 µM | 10.7 µM | 8.68 µM | – | – | – | – | –
7 | C/C(=N\NC(N)=O)C(CN1CCCCC1)C(c1ccccc1)c1c(O)c2ccccc2oc1=O (configuration not stated) | > 100 µM | > 100 µM | > 100 µM | > 100 µM | > 100 µM | > 100 µM | > 100 µM | > 100 µM | > 100 µM | > 100 µM | > 100 µM | 21.6 µM | – | –
8 | CC(=O)/C=C/C=C(\C)CC/C=C(\C)CC(C)C | 65.8 µM | 49.2 µM | > 100 µM | 95.3 µM | > 100 µM | > 100 µM | 27.4 µM | > 100 µM | > 100 µM | > 100 µM | – | – | – | –
9 | CCOC(=O)C(C)(C)Oc1ccc2c(=O)cc(-c3ccccc3)oc2c1 | 51.4 µM | 33.7 µM | 36.3 µM | 35.9 µM | 78.4 µM | – | – | 84.8 µM | > 100 µM | 42.8 µM | – | – | – | –
10 | Cc1cc(Cc2c(F)c(F)c(Cc3cc(C)no3)c(F)c2F)on1 | > 100 µM | > 100 µM | > 100 µM | – | > 100 µM | > 100 µM | > 100 µM | > 100 µM | – | > 100 µM | – | – | – | –
11 | O=C(N/N=C\c1cccc2ccccc12)Nc1ccc([N+](=O)[O-])cc1 | > 53.5 µM | > 68.5 µM | > 100 µM | > 100 µM | > 100 µM | > 60.7 µM | 26.2 µM | > 100 µM | > 76.6 µM | > 100 µM | – | – | – | –
12 | O=C(c1ccccc1)c1c(C(F)(F)F)n([O-])c2ccccc2[n+]1=O | 3.3 µM | 3.52 µM | – | 3.89 µM | 0.489 µM | 4.54 µM | 1.2 µM | 6.04 µM | 5.72 µM | 3.23 µM | – | – | – | –
13 | CN(C(=O)C1(C(=O)C=[N+]=[N-])CC1)c1ccccc1 | > 100 µM | > 100 µM | > 100 µM | > 100 µM | > 100 µM | > 100 µM | – | > 100 µM | > 100 µM | > 100 µM | – | – | – | –
14 | O=C1NC(=S)N/C1=C/c1ccccc1O | > 100 µM | > 100 µM | > 100 µM | – | > 100 µM | > 100 µM | > 100 µM | > 100 µM | – | > 100 µM | – | – | – | –
15 | O=C(O)/C=C(/CC(=O)O)C(=O)O | 46.6 µM | 36.7 µM | 44.2 µM | 61.2 µM | 42.2 µM | 45.7 µM | – | 51.7 µM | > 100 µM | 62.3 µM | – | – | – | –
16 | Cc1nnc2cc(C(=O)O)c3ccccc3n2c1=O | > 10 µM | > 10 µM | > 10 µM | – | > 10 µM | > 10 µM | > 10 µM | > 10 µM | > 10 µM | > 10 µM | – | – | – | –
17 | N#Cc1c(Nc2ccc(F)cc2)[n+]([O-])c2ccc(Cl)cc2[n+]1[O-] | > 100 µM | 17.2 µM | 44.2 µM | > 100 µM | 4.02 µM | > 100 µM | 5.16 µM | – | 7.97 µM | > 100 µM | – | – | – | –
18 | CN1CCn2c(Br)ccc2C1=O | > 100 µM | > 100 µM | > 100 µM | > 100 µM | > 100 µM | – | – | > 100 µM | > 100 µM | > 100 µM | – | – | – | –
19 | CC1=C(C(=O)OCCc2ccc([N+](=O)[O-])cc2)C(c2ccccc2[N+](=O)[O-])C(C(=O)OC(C)C)=C(C)N1 (configuration not stated) | > 100 µM | 58.4 µM | 36.7 µM | > 100 µM | > 100 µM | > 100 µM | – | 39.2 µM | > 100 µM | > 100 µM | – | – | – | –
20 | O=C(CC(O)(C(F)(F)F)C(F)(F)F)C(CCCl)C(O)(C(F)(F)F)C(F)(F)F (configuration not stated) | 83.9 µM | > 100 µM | > 100 µM | > 100 µM | > 100 µM | > 100 µM | – | > 100 µM | 88.6 µM | > 100 µM | – | – | – | –
21 | CCOc1ccc2[nH]c3c(C)c4cc[n+](C)cc4c(C)c3c2c1 | 9.87 µM and 11.6 µM | 5.48 µM and 12.3 µM | 30.5 µM and 58.5 µM | 14.4 µM and 21.6 µM | 32 µM and > 44.7 µM | – | 13.1 µM and 25.3 µM | > 100 µM | 11.5 µM and 12.6 µM | 1.26 µM and 3.37 µM | – | – | 0.236 µM and 0.51 µM | 0.297 µM and 0.707 µM
22 | COC(=O)c1ccc(-c2nc(C#N)c(N)o2)cc1 | > 100 µM | – | > 100 µM | > 100 µM | > 100 µM | > 100 µM | – | > 100 µM | > 100 µM | > 100 µM | – | – | – | –
